The values below come from patent US12589104B2, “Thiosaccharides for use in treating coronavirus infection” (priority 2020, dated 2026).

The target of the assay is SARS-CoV-2 RBD^N501Y binding to ACE2 (Severe acute respiratory syndrome coronavirus 2, UniProt P0DTC2, N501Y).

In the case of `NCCS` [Cysteamine], the “inhibition of binding of RBD^N501Y to ACE2” value is listed as “potently inhibited”.
